Values quoted from earlier work, collected in patent US10446758B2, “Hole transporting material, OLED display panel and electronic device comprising the same” (SHANGHAI TIANMA AM-OLED CO., LTD., priority 2016, dated 2019).

Conditions: prior art material, background statement

## CC1(C)c2ccccc2-c2ccc(N(c3ccc4c(c3)C3(c5ccccc5-c5ccccc53)c3ccccc3-4)c3ccccc3-c3ccccc3)cc21
  solubility (in words): good
